In US20080287469A1, “Phosphoinositide 3-Kinase Inhibitors for Inhibiting Leukocyte Accumulation” (priority 2005, published 2008):

Columns and labels:
p110δ [1] = target: p110δ (Homo sapiens, UniProt O00329); conditions: cited from earlier work
[2] = system: neutrophils on inflamed venular endothelium (E-selectin-dependent adhesion); assay: Intravital microscopy of TNFα-stimulated cremaster muscle venules, P-selectin−/− mice; assay type: in vivo; conditions: oral, one hour prior to TNFα-stimulation, vs vehicle
Experimental: The surgical preparation of animals for all in vivo studies was performed using standard techniques. (Puri et al., Blood, 103:3448-3456 (2004)) An inflammatory response in the cremaster muscle (CM) venules of mice was induced by an intrascrotal injection of recombinant murine TNFα (20 ng/mouse). The tissue was surgically exposed 3 h post-cytokine stimulation and viewed on an intravital microscope (IV-500; Mikron instruments). GFP-expressing cells were visualized in the microcirculation through X^60 water immersion objective (Zeiss) using an intensified camera (VE1000SIT; Dage mti) and epifluorescence illumination. Rolling fraction was defined as the percentage of cells that interact with a given region of venule as compared to the total number of cells that enter that vessel (interacting and non-interacting) during the same time period. Venular shear rates were determined from optical Doppler velocimeter measurements of centerline erythrocyte velocity. Video images were recorded using a Hi8 VCR (Sony) and analysis of performed using a PC-based image analysis system.
Although P-selectin expressed on endothelium predominates in the initial capture of circulating neutrophils in acute tissue injury, it is E-selectin that accounts for the phenotypically slow rolling movements of these cells in microvessels of TNFα-stimulated CM. […]

[3] = Plasma concentration of the compound after oral administration; assay type: in vivo, mice; conditions: 4 h post-oral administration; P-selectin−/− mice
Experimental: Animals received a single oral dose of either a compound in accordance with the invention (25 mg/kg for mice and 20 or 40 mg/kg for rats) or vehicle (PEG-400). Blood samples were subsequently drawn at indicated time points and plasma concentration of the compound determined after liquid-liquid extraction by LC/MS. The lower quantification limit was 50 ng/ml. Plasma samples from control animals (vehicle alone) were used as the blank control.

p110δ [4] = target: T1, p110δ (Mus musculus, UniProt O35904); assay: Immunoprecipitation and PI3K activity assay: p110δ from spleen extracts of WT mice; assay type: biochemical; conditions: 10 μM; vs vehicle control
T1 construct: this enzyme isolated from spleen extracts of WT animals; from tissue; host or cells: mouse spleen
T1 sequence (O35904 whole entry): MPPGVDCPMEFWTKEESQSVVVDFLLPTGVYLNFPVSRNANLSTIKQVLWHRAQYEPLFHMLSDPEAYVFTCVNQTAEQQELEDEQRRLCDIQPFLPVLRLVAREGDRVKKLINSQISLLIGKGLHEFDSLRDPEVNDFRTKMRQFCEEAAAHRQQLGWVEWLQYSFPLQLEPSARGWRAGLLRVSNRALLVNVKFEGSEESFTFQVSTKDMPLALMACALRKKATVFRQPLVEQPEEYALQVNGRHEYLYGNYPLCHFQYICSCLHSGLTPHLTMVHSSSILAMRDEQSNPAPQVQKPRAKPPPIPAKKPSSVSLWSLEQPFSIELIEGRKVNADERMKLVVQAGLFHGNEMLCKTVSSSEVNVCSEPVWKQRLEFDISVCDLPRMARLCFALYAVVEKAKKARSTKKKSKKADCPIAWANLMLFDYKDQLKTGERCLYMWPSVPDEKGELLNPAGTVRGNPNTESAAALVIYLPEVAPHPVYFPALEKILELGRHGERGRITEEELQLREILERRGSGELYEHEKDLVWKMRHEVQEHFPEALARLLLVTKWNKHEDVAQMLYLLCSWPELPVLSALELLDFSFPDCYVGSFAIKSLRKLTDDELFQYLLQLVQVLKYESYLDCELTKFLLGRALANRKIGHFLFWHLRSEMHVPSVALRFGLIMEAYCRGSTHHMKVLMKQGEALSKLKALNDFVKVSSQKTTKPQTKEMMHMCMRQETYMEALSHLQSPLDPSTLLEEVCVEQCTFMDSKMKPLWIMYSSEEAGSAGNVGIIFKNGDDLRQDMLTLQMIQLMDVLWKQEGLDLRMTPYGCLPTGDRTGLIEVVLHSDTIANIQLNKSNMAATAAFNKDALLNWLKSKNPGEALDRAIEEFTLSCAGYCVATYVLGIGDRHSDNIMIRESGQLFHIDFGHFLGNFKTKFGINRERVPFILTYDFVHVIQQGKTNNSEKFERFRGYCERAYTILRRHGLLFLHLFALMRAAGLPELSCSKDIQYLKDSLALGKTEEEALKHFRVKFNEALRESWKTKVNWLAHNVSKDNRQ
T1 sequence (P26450 whole entry partner): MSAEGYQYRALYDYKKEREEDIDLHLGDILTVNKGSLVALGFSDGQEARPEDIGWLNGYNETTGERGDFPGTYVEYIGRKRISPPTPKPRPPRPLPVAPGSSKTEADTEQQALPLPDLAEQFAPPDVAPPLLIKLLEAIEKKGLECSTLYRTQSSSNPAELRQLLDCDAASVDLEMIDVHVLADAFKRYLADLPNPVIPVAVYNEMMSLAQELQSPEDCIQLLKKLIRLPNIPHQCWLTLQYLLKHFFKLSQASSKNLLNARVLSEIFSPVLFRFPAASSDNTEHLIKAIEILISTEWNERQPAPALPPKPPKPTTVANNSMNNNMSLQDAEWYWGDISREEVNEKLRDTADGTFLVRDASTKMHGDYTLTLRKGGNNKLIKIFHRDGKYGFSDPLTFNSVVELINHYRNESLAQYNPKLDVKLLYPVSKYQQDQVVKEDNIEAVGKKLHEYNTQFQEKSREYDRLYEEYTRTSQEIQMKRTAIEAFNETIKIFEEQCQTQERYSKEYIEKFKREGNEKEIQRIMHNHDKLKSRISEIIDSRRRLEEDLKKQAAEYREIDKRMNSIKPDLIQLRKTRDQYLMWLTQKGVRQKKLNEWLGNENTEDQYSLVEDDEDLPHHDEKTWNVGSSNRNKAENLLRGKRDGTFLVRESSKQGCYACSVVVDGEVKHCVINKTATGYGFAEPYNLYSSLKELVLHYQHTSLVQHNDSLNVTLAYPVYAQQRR
Experimental: Spleens from WT mice were pulverized in liquid nitrogen cooled mortar and solubilized in PI3-kinase lysis buffer (50 mM Tris-HCl (pH 7.4), 1% Triton X-100, 150 mM NaCl, 1 mM EDTA and a cocktail of inhibitors to serine and cysteine proteases (Complete™, Mini, Roch Applied Science, IN). HUVEC lysates were prepared as described. (Puri et al., Blood, 103:3448-3456 (2004)) Lysates were precleared with protein A-Sepharose and aliquots of the supernatants were incubated with antibodies specific for p110δ and p110γ, or control antibody for 1 hour at 4° C., followed by addition of protein A-Sepharose for 2 hours at 4° C. Precipitates were washed once with lysis buffer, twice with 0.1 M Tris-HCl, pH 7.4; 5 mM LiCl; and 0.1 mM sodium orthovanadate and once with PI 3-kinase buffer containing 20 mM Hepes, pH 7.4, 10 μM ATP, 5 mM MgCl2, plus 50 μg/ml horse IgG (Pierce, Rockford, Ill.). Lipid kinase activity was determined as previously described. (Sadhu et al., J. Immunol., 170:2647-2654 (2003)) The radioactive product PIP3 was captured onto a 96-well polyvinylidene difluoride filter plate (Millipore, Billerica, Mass.) and the bound radioactivity was quantitated with Microbeta Liquid Scintillation Counter (PerkinElmer Life Sciences, Boston, Mass.).

E-selectin = assay: Flow cytometric analysis of E-selectin expression on TNFα-stimulated HUVECs; conditions: TNFα 4 hr; IC87114 2 to 50 μM, LY294002 10 μM, Bay 11-7082 10 μM
[5] = system: TNFα-stimulated HUVEC monolayers; assay: Laminar flow assay: neutrophil capture by TNFα-stimulated HUVEC monolayers; assay type: cell-based, human; conditions: wall shear rate 200 s^−1; IC87114 2 μM, LY294002 10 μM, Bay 11-7082 10 μM, CL3 50 μg/ml
Experimental: Peripheral blood neutrophils were isolated from healthy volunteers and infused over the endothelial cell monolayer that was incorporated into a parallel plate flow chamber (GlycoTech) for 5 min at a shear rate of 200 s^−1. (Puri et al., Blood, 103:3448-3456 (2004)) Approval was obtained from the Washington University institutional review board for these studies. Informed consent was provided according to the Declaration of Helsinki. Neutrophil-endothelial cell interactions were recorded and analyzed as previously described. (Puri et al., Blood, 103:3448-3456 (2004)) For E-selectin blockade, HUVECs were incubated with mAb CL3 (50 μg/ml, 15 min) prior to adhesion assays.

Chain of p110δ (Homo sapiens, UniProt O00329) (O00329 whole entry, species assumed): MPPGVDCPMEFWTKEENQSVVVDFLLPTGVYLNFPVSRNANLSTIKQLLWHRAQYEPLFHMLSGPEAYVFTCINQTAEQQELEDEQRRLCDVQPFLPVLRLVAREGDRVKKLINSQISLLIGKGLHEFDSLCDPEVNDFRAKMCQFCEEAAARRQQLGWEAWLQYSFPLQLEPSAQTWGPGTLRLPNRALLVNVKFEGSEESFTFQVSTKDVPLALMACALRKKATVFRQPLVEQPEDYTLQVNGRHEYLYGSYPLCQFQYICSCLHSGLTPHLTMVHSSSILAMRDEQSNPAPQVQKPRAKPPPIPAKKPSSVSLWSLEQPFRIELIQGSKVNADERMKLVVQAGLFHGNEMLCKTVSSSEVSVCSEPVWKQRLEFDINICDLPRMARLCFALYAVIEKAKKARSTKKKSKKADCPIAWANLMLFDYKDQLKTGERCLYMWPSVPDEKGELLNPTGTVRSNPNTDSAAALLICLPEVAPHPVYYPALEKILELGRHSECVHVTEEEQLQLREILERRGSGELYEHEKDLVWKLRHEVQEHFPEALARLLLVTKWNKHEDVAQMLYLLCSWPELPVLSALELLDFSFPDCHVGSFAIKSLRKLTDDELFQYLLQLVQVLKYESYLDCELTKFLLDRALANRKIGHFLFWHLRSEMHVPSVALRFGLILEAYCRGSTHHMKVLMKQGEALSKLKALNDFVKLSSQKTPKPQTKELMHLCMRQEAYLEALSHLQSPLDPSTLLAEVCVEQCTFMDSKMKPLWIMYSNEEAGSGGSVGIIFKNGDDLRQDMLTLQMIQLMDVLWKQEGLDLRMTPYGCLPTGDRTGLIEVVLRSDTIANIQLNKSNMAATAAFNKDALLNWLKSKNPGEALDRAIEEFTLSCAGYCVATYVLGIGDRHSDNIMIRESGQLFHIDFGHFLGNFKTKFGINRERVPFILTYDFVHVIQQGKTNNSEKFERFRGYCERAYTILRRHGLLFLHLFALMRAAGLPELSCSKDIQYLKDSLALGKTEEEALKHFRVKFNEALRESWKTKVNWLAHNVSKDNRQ
Chain of p110δ (Homo sapiens, UniProt O00329) (P27986 whole entry partner, species assumed): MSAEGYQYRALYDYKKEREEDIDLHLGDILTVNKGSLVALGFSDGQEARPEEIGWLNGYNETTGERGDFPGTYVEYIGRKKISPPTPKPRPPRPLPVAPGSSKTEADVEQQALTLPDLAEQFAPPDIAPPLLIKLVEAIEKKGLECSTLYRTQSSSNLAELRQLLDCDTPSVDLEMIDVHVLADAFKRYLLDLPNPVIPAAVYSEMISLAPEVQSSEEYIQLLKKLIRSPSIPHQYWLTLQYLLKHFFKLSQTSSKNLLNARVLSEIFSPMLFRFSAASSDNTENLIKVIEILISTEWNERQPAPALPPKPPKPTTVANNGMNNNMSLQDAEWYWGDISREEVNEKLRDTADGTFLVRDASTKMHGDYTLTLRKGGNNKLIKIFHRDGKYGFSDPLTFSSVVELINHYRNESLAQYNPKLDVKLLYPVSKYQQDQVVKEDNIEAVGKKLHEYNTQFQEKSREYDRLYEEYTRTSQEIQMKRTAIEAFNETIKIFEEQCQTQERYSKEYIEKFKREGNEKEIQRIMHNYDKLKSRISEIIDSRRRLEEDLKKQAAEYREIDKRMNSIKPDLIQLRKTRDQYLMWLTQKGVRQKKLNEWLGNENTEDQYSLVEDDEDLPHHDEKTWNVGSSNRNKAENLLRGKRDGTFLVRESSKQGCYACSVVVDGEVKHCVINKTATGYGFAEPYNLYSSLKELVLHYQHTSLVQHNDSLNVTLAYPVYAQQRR

Cc1ccccc1-n1c(Cn2cnc3c(N)ncnc32)nc2cccc(C)c2c1=O [IC87114]
inhibition of delta activity (p110δ [1]; 10 μM): > 95% | inhibition of p110δ activity at the mean plasma level (p110δ [1]; 4.9±2.7 μM, Sadhu et al.): > 85% | reduction in neutrophil attachment to and rolling on inflamed venular endothelium [2]: > 88% | mean plasma level of the compound [3]: 4.9 ± 2.7 µM | reduction of PIP3 production by immuno-precipitated p110δ (p110δ [4]): > 90%

Cc1ccc(S(=O)(=O)/C=C/C#N)cc1 [Bay 11-7082]
TNFα-induced expression of E-selectin (E-selectin): abrogated | reduction of capture/attachment of untreated neutrophils [5]: 100%
